The NIST ThermoML archive (doi:10.1021/je700260f)
± gives the expanded uncertainty stated by the source.

Conditions: 303.15 K, Liquid, Vibrating tube method

FC(C(F)(F)F)C(F)(F)F [1,1,1,2,3,3,3-heptafluoropropane]
Conditions | mass density [kg/m3]
8067 kPa | 1421.1 ± 1.5
8093 kPa | 1421.3 ± 1.5
8123 kPa | 1421.4 ± 1.5
8152 kPa | 1421.5 ± 1.5
8181 kPa | 1421.9 ± 1.5
8211 kPa | 1422 ± 1.5
8250 kPa | 1422.2 ± 1.5
8280 kPa | 1422.3 ± 1.5
8306 kPa | 1422.5 ± 1.5
8340 kPa | 1422.8 ± 1.5
8378 kPa | 1423 ± 1.5
8411 kPa | 1423.1 ± 1.5
8436 kPa | 1423.4 ± 1.5
8471 kPa | 1423.6 ± 1.5
8496 kPa | 1423.6 ± 1.5
8526 kPa | 1423.9 ± 1.5
8556 kPa | 1423.9 ± 1.5
8581 kPa | 1424.3 ± 1.5
8610 kPa | 1424.4 ± 1.5
8640 kPa | 1424.4 ± 1.5
8671 kPa | 1424.6 ± 1.5
8697 kPa | 1424.8 ± 1.5
8726 kPa | 1425 ± 1.5
8752 kPa | 1425.2 ± 1.5
8778 kPa | 1425.4 ± 1.5
8808 kPa | 1425.5 ± 1.5
8847 kPa | 1425.8 ± 1.5
8873 kPa | 1425.9 ± 1.5
8908 kPa | 1426.2 ± 1.5
8947 kPa | 1426.2 ± 1.5
8978 kPa | 1426.5 ± 1.5
9004 kPa | 1426.6 ± 1.5
9031 kPa | 1426.8 ± 1.5
9066 kPa | 1426.9 ± 1.5
9263 kPa | 1428.1 ± 1.5
9299 kPa | 1428.3 ± 1.5
9334 kPa | 1428.5 ± 1.5
9370 kPa | 1428.6 ± 1.5
9401 kPa | 1428.9 ± 1.5
9445 kPa | 1429.1 ± 1.5
9480 kPa | 1429.3 ± 1.5
9502 kPa | 1429.4 ± 1.5
9533 kPa | 1429.7 ± 1.5
9567 kPa | 1429.9 ± 1.5
9598 kPa | 1429.9 ± 1.5
9634 kPa | 1430.2 ± 1.5
9661 kPa | 1430.3 ± 1.5
9693 kPa | 1430.5 ± 1.5
9720 kPa | 1430.6 ± 1.5
9747 kPa | 1430.8 ± 1.5
9779 kPa | 1431.1 ± 1.5
9806 kPa | 1431.2 ± 1.5
9833 kPa | 1431.3 ± 1.5
9878 kPa | 1431.5 ± 1.5
9906 kPa | 1431.7 ± 1.5
9938 kPa | 1431.8 ± 1.5
9969 kPa | 1432.1 ± 1.5
9996 kPa | 1432.3 ± 1.5
10037 kPa | 1432.6 ± 1.5
10069 kPa | 1432.6 ± 1.5
10110 kPa | 1432.8 ± 1.5
10137 kPa | 1433 ± 1.5
10174 kPa | 1433.2 ± 1.5
10201 kPa | 1433.4 ± 1.5
10228 kPa | 1433.5 ± 1.5
10255 kPa | 1433.7 ± 1.5
10278 kPa | 1433.7 ± 1.5
10311 kPa | 1434 ± 1.5
10343 kPa | 1434 ± 1.5
10379 kPa | 1434.3 ± 1.5
10406 kPa | 1434.4 ± 1.5
10434 kPa | 1434.6 ± 1.5
10466 kPa | 1434.8 ± 1.5
10494 kPa | 1434.9 ± 1.5
10531 kPa | 1435.1 ± 1.5
10559 kPa | 1435.3 ± 1.5
10596 kPa | 1435.4 ± 1.5
10629 kPa | 1435.8 ± 1.5
10662 kPa | 1436 ± 1.5
10695 kPa | 1436 ± 1.5
10725 kPa | 1436.2 ± 1.5
10753 kPa | 1436.4 ± 1.5
10791 kPa | 1436.6 ± 1.5
10824 kPa | 1436.9 ± 1.5
10960 kPa | 1437.4 ± 1.5
11032 kPa | 1437.7 ± 1.5
11066 kPa | 1438 ± 1.5
11105 kPa | 1438.2 ± 1.5
11143 kPa | 1438.4 ± 1.5
11183 kPa | 1438.6 ± 1.5
11218 kPa | 1438.8 ± 1.5
11258 kPa | 1439.1 ± 1.6
11297 kPa | 1439.2 ± 1.6
11332 kPa | 1439.3 ± 1.6
11372 kPa | 1439.7 ± 1.6
11402 kPa | 1439.8 ± 1.6
11442 kPa | 1439.8 ± 1.6
11473 kPa | 1440.1 ± 1.6
11525 kPa | 1440.4 ± 1.6
11555 kPa | 1440.6 ± 1.6
11599 kPa | 1440.8 ± 1.6
11633 kPa | 1441 ± 1.6
11668 kPa | 1441.2 ± 1.6
11703 kPa | 1441.2 ± 1.6
11734 kPa | 1441.6 ± 1.6
11770 kPa | 1441.7 ± 1.6
11800 kPa | 1442 ± 1.6
11840 kPa | 1442.2 ± 1.6
11875 kPa | 1442.2 ± 1.6
11915 kPa | 1442.5 ± 1.6
11952 kPa | 1442.7 ± 1.6
11987 kPa | 1442.8 ± 1.6
12022 kPa | 1443 ± 1.6
12052 kPa | 1443.3 ± 1.6
12404 kPa | 1444.9 ± 1.6
12445 kPa | 1445.1 ± 1.6
12481 kPa | 1445.4 ± 1.6
12527 kPa | 1445.6 ± 1.6
12558 kPa | 1445.7 ± 1.6
12595 kPa | 1446 ± 1.6
12631 kPa | 1446.1 ± 1.6
12681 kPa | 1446.4 ± 1.6
12722 kPa | 1446.5 ± 1.6
12752 kPa | 1446.7 ± 1.6
12793 kPa | 1447 ± 1.6
12830 kPa | 1447.2 ± 1.6
12877 kPa | 1447.5 ± 1.6
12924 kPa | 1447.5 ± 1.6
12965 kPa | 1447.8 ± 1.6
12995 kPa | 1447.8 ± 1.6
13030 kPa | 1448.2 ± 1.6
13077 kPa | 1448.3 ± 1.6
13108 kPa | 1448.5 ± 1.6
13150 kPa | 1448.8 ± 1.6
13186 kPa | 1448.9 ± 1.6
13229 kPa | 1449.2 ± 1.6
13275 kPa | 1449.4 ± 1.6
13317 kPa | 1449.6 ± 1.6
13364 kPa | 1449.7 ± 1.6
13400 kPa | 1449.9 ± 1.6
13432 kPa | 1450.1 ± 1.6
13468 kPa | 1450.3 ± 1.6
13516 kPa | 1450.6 ± 1.6
13547 kPa | 1450.6 ± 1.6
13593 kPa | 1450.8 ± 1.6
13620 kPa | 1451.1 ± 1.6
13652 kPa | 1451.1 ± 1.6
13689 kPa | 1451.3 ± 1.6
13730 kPa | 1451.6 ± 1.6
13762 kPa | 1451.7 ± 1.6
13794 kPa | 1451.9 ± 1.6
13826 kPa | 1452 ± 1.6
13867 kPa | 1452.1 ± 1.6
13900 kPa | 1452.4 ± 1.6
13937 kPa | 1452.6 ± 1.6
13966 kPa | 1452.7 ± 1.6
14003 kPa | 1452.9 ± 1.6
14032 kPa | 1453.1 ± 1.6
14069 kPa | 1453.3 ± 1.6
14113 kPa | 1453.4 ± 1.6
14146 kPa | 1453.5 ± 1.6
14189 kPa | 1453.8 ± 1.6
14223 kPa | 1454.1 ± 1.6
14261 kPa | 1454.1 ± 1.6
14289 kPa | 1454.2 ± 1.6
14322 kPa | 1454.4 ± 1.6
14355 kPa | 1454.7 ± 1.6
14388 kPa | 1454.9 ± 1.6
14416 kPa | 1455 ± 1.6
14450 kPa | 1455 ± 1.6
14493 kPa | 1455 ± 1.6
14521 kPa | 1455.4 ± 1.6
14555 kPa | 1455.5 ± 1.6
14875 kPa | 1457.1 ± 1.6
14909 kPa | 1457.2 ± 1.6
14938 kPa | 1457.4 ± 1.6
14981 kPa | 1457.7 ± 1.6
15024 kPa | 1457.9 ± 1.6
15062 kPa | 1457.8 ± 1.6
15091 kPa | 1458 ± 1.6
15121 kPa | 1458.3 ± 1.6
15159 kPa | 1458.3 ± 1.6
15193 kPa | 1458.5 ± 1.6
15222 kPa | 1458.7 ± 1.6
15252 kPa | 1458.8 ± 1.6
15283 kPa | 1459 ± 1.6
15317 kPa | 1459.2 ± 1.6
15351 kPa | 1459.2 ± 1.6
15389 kPa | 1459.5 ± 1.6
15422 kPa | 1459.6 ± 1.6
15461 kPa | 1459.8 ± 1.6
15500 kPa | 1459.9 ± 1.6
15540 kPa | 1460.2 ± 1.6
15578 kPa | 1460.3 ± 1.6
15623 kPa | 1460.4 ± 1.6
15662 kPa | 1460.6 ± 1.6
15692 kPa | 1460.8 ± 1.6
15721 kPa | 1461.1 ± 1.6
15751 kPa | 1461.1 ± 1.6
15780 kPa | 1461.1 ± 1.6
15805 kPa | 1461.3 ± 1.6
15840 kPa | 1461.4 ± 1.6
15879 kPa | 1461.7 ± 1.6
15914 kPa | 1461.8 ± 1.6
15948 kPa | 1462 ± 1.6
